Reference: ChEMBL document CHEMBL1134446, “Polyamine analogue antidiarrheals: a structure-activity study” (J Med Chem, 2001)

Legend:
Canis familiaris [1] = assay: Spermine Distribution in kidney was determined after DESPM dosing of 8.0 mg/kg/day for 4.5 days in dog(cu dose-52.4) and sacrificed at 75 days PLD(cu dose-36 mg/kg); assay type: ADME, organism-based, Canis lupus familiaris; conditions: in vivo, 1800 h
Canis familiaris [2] = assay: Spermine Distribution in liver was determined after DESPM dosing of 1.87 mg/kg/day for 28 days in dog(cu dose-52.4) and sacrificed at 75 days PLD(cu dose-52.4 mg/kg); assay type: ADME, organism-based, Canis lupus familiaris; conditions: in vivo, 1800 h
Canis familiaris [3] = assay: Spermine Distribution in liver was determined after DESPM dosing of 4 mg/kg/day for 13 days in dog(cu dose-52.4) and sacrificed at 10 days PLD(cu dose-52 mg/kg); assay type: ADME, organism-based, Canis lupus familiaris; conditions: in vivo, 240 h
Canis familiaris [4] = assay: Spermine Distribution in liver was determined after DESPM dosing of 6.0 mg/kg/day for 4.5 days in dog(cu dose-52.4) and sacrificed at 10 days PLD(cu dose-27 mg/kg); assay type: ADME, organism-based, Canis lupus familiaris; conditions: in vivo, 240 h
Canis familiaris [5] = assay: putrescine Distribution in liver was determined after DESPM dosing of 6.0 mg/kg/day for 4.5 days in dog(cu dose-52.4) and sacrificed at 10 days PLD(cu dose-27 mg/kg); assay type: ADME, organism-based, Canis lupus familiaris; conditions: in vivo, 240 h
Canis familiaris [6] = assay: putrescine Distribution in liver was determined after DESPM dosing of 8.0 mg/kg/day for 4.5 days in dog(cu dose-52.4) and sacrificed at 75 days PLD(cu dose-36 mg/kg); assay type: ADME, organism-based, Canis lupus familiaris; conditions: in vivo, 1800 h
Canis familiaris [7] = assay: Spermidine Distribution in kidney was determined after DESPM dosing of 1.87 mg/kg/day for 28 days in dog(cu dose-52.4) and sacrificed at 10 days PLD(cu dose-52.4 mg/kg); assay type: ADME, organism-based, Canis lupus familiaris; conditions: in vivo, 240 h
Canis familiaris [8] = assay: Spermidine Distribution in kidney was determined after DESPM dosing of 1.87 mg/kg/day for 28 days in dog(cu dose-52.4) and sacrificed at 75 days PLD(cu dose-52.4 mg/kg); assay type: ADME, organism-based, Canis lupus familiaris; conditions: in vivo, 1800 h
Canis familiaris [9] = assay: Spermine Distribution in liver was determined after DESPM dosing of 6.0 mg/kg/day for 4.5 days in dog(cu dose-52.4) and sacrificed at 75 days PLD(cu dose-27 mg/kg); assay type: ADME, organism-based, Canis lupus familiaris; conditions: in vivo, 1800 h
Canis familiaris [10] = assay: MESPM/MEHSPH Distribution in liver was determined after DESPM dosing of 8.0 mg/kg/day for 4.5 days in dog(cu dose-52.4) and sacrificed at 75 days PLD(cu dose-36 mg/kg); assay type: ADME, organism-based, Canis lupus familiaris; conditions: in vivo, 1800 h
Canis familiaris [11] = assay: Spermine Distribution in kidney was determined after DESPM dosing of 1.87 mg/kg/day for 28 days in dog(cu dose-52.4) and sacrificed at 75 days PLD(cu dose-52.4 mg/kg); assay type: ADME, organism-based, Canis lupus familiaris; conditions: in vivo, 1800 h
Canis familiaris [12] = assay: Spermine Distribution in kidney was determined after DESPM dosing of 4 mg/kg/day for 13 days in dog(cu dose-52.4) and sacrificed at 10 days PLD(cu dose-52 mg/kg); assay type: ADME, organism-based, Canis lupus familiaris; conditions: in vivo, 240 h
Canis familiaris [13] = assay: Spermine Distribution in kidney was determined after DESPM dosing of 4 mg/kg/day for 13 days in dog(cu dose-52.4) and sacrificed at 75 days PLD(cu dose-52 mg/kg); assay type: ADME, organism-based, Canis lupus familiaris; conditions: in vivo, 1800 h
Rattus norvegicus = assay: Stool output of rat over the 6-h collection period when a dose of 9.4 mg/kg (23.3 administered; assay type: functional
Canis familiaris [14] = assay: MESPM/MEHSPH Distribution in kidney was determined after DESPM dosing of 1.87 mg/kg/day for 28 days in dog(cu dose-52.4) and sacrificed at 75 days PLD(cu dose-52.4 mg/kg); assay type: ADME, organism-based, Canis lupus familiaris; conditions: in vivo, 1800 h
Canis familiaris [15] = assay: Spermidine Distribution in liver was determined after DEHSPM dosing of 2.0 mg/kg/day for 29 days in dog(cu dose-52.4) and sacrificed at 10 days PLD(cu dose-58 mg/kg); assay type: ADME, organism-based, Canis lupus familiaris; conditions: in vivo, 240 h
Canis familiaris [16] = assay: putrescine Distribution in kidney was determined after DEHSPM dosing of 2.0 mg/kg/day for 29 days in dog(cu dose-52.4) and sacrificed at 10 days PLD(cu dose-22 mg/kg); assay type: ADME, organism-based, Canis lupus familiaris; conditions: in vivo, 240 h
Canis familiaris [17] = assay: Distribution in liver was determined after DESPM dosing of 6.0 mg/kg/day for 4.5 days in dog(cu dose-52.4) and sacrificed at 10 days PLD(cu dose-27 mg/kg); assay type: ADME, organism-based, Canis lupus familiaris; conditions: in vivo, 240 h
Canis familiaris [18] = assay: Distribution in liver was determined after DESPM dosing of 8.0 mg/kg/day for 4.5 days in dog(cu dose-52.4) and sacrificed at 10 days PLD(cu dose-36 mg/kg); assay type: ADME, organism-based, Canis lupus familiaris; conditions: in vivo, 240 h
Canis familiaris [19] = assay: HSPM Distribution in kidney was determined after DEHSPM dosing of 2.0 mg/kg/day for 29 days in dog(cu dose-52.4) and sacrificed at 10 days PLD(cu dose-58 mg/kg); assay type: ADME, organism-based, Canis lupus familiaris; conditions: in vivo, 240 h
Canis familiaris [20] = assay: Distribution in kidney was determined after DEHSPM dosing of 2.0 mg/kg/day for 29 days in dog(cu dose-52.4) and sacrificed at 10 days PLD(cu dose-58 mg/kg); assay type: ADME, organism-based, Canis lupus familiaris; conditions: in vivo, 240 h
Canis familiaris [21] = assay: Distribution in kidney was determined after DESPM dosing of 4 mg/kg/day for 13 days in dog(cu dose-52.4) and sacrificed at 10 days PLD(cu dose-52 mg/kg); assay type: ADME, organism-based, Canis lupus familiaris; conditions: in vivo, 240 h

CCNCCCNCCCCNCCCNCC [BIS(ETHYL)SPERMINE]
Wet weight of tissue (Canis familiaris [1]): 624 nM/g | Wet weight of tissue (Canis familiaris [2]): 649 nM/g | Wet weight of tissue (Canis familiaris [3]): 462 nM/g | Wet weight of tissue (Canis familiaris [4]): 848 nM/g | Wet weight of tissue (Canis familiaris [5]): 87 nM/g | Wet weight of tissue (Canis familiaris [6]): 56 nM/g | Wet weight of tissue (Canis familiaris [7]): 69 nM/g | Wet weight of tissue (Canis familiaris [8]): 87 nM/g | Wet weight of tissue (Canis familiaris [9]): 992 nM/g | Wet weight of tissue (Canis familiaris [10]): 0 nM/g | Wet weight of tissue (Canis familiaris [11]): 540 nM/g | Wet weight of tissue (Canis familiaris [12]): 277 nM/g | Wet weight of tissue (Canis familiaris [13]): 534 nM/g | Stool output (Rattus norvegicus): <0.6 g (350g of rat weight)-1 | Wet weight of tissue (Canis familiaris [14]): 0 nM/g

CCNCCCCNCCCCNCCCCNCC [DIETHYLHOMOSPERMINE]
Wet weight of tissue (Canis familiaris [15]): 50 nM/g | Wet weight of tissue (Canis familiaris [16]): 0 nM/g | Wet weight of tissue (Canis familiaris [17]): 30 nM/g | Wet weight of tissue (Canis familiaris [18]): 29 nM/g | Wet weight of tissue (Canis familiaris [19]): 269 nM/g | Wet weight of tissue (Canis familiaris [20]): 98 nM/g | Wet weight of tissue (Canis familiaris [21]): 46 nM/g
